Measured values as given in ChEMBL document CHEMBL3044947, “Isolation of an insecticidal compound oxalicine B from Penicillium sp. TAMA 71 and confirmation of its chemical structure by X-ray crystallographic analysis” (2007).
Activity calls are given as the source filed them. The rule behind the calls is not given here.

Key:
Bemisia argentifolii = experiment: Insecticidal activity against Bemisia argentifolii assessed as insect mortality at 500 ppm; assay type: functional, organism-based
[1] = tested on: Frankliniella occidentalis; experiment: Antifeedant activity against Frankliniella occidentalis (western flower thrips) at 500 ppm; assay type: functional, organism-based
Tetranychus urticae = experiment: Miticidal activity against Tetranychus urticae (two-spotted spider mite) assessed as insect mortality at 500 ppm; assay type: functional, organism-based
[2] = tested on: Frankliniella occidentalis; experiment: Insecticidal activity against Frankliniella occidentalis (western flower thrips) assessed as insect mortality at 500 ppm; assay type: functional
Myzus persicae [3] = experiment: Insecticidal activity against Myzus persicae (green peach aphid) assessed as insect mortality at 100 ppm; assay type: functional
Plutella xylostella = experiment: Insecticidal activity against Plutella xylostella (diamondback moth) assessed as insect mortality at 500 ppm; assay type: functional, organism-based
Myzus persicae [4] = experiment: Insecticidal activity against Myzus persicae (green peach aphid) assessed as insect mortality at 200 ppm; assay type: functional
Podosphaera fuliginea = experiment: Fungicidal activity against Podosphaera fuliginea at 500 ppm; assay type: functional, organism-based
Botrytis cinerea = experiment: Fungicidal activity against Botryotinia fuckeliana at 500 ppm; assay type: functional, organism-based

With `C=C(C)[C@]1(O)CC[C@]2(C)[C@H](CC=C(C)[C@]23Oc2cc(-c4cccnc4)oc(=O)c2[C@@H]3O)[C@@]12CCC(=O)OC2` [OXALICINE B] the Activity (Bemisia argentifolii) was “inactive”, the Activity [1] was “inactive” and the Activity (Tetranychus urticae) was “inactive”. The mortality at 500 ppm [2] was 32%, the mortality at 100 ppm (Myzus persicae [3]) was 82% and the Activity (Plutella xylostella) was “inactive”. For the same compound, the mortality at 200 ppm (Myzus persicae [4]) was 87%, the Activity (Podosphaera fuliginea) was “inactive” and the Activity (Botrytis cinerea) was “inactive”.
